As a reminder, the IC50 is the concentration that inhibits the measured activity by half.

43 molecules from patent publication US12221453B2, “Substituted pyrazolo[5′,1′:2,3]pyrimido[5,4-b][1,4]oxazines as TYK2 inhibitors” (TAKEDA PHARMACEUTICAL COMPANY LIMITED, priority 2018, dated 2025) can be followed below.

This assay concerns IL-12 induced STAT4 phosphorylation mediated by TYK2/JAK2. As to the kind of experiment: IL-12 induced pSTAT4 in human PBMC. Particulars: 1 hr compound, 1.7 ng/mL IL-12 for 30 minutes. Format: cell-based. The method in brief:
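Thawed human PBMC were pre-incubated with compound for 1 hr at 37 °C (0.1% DMSO), then stimulated with 1.7 ng/mL IL-12 for 30 minutes. Phospho-STAT4 and total STAT4 were measured in cell lysates by MSD.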

`CNc1cc(-c2cn([C@H]3CCOC3)c3ncccc23)nc2c(C(=O)N[C@H]3CC[C@@H]3OC)cnn12` [Compound I-613] came in with an IC50 of under 0.1 µM.
`CNc1cc(-c2cn([C@@H]3CCN(C)C3)c3ncccc23)nc2c(C(=O)NC3CC[C@@H]3OC)cnn12` (stereo partly shown) [Compound I-615]: the half-maximal inhibitory concentration (IC50) was under 0.1 µM.
With `CNc1cc(-c2cn([C@@H]3CCN(C)C3)c3ncccc23)nc2c(C(=O)N[C@H]3CC[C@@H]3OC)cnn12` [Compound I-616], the concentration for half-maximal inhibition (IC50) is under 0.1 µM.
`CNc1cc(-c2cn([C@H]3CCN(C)C3)c3ncccc23)nc2c(C(=O)NC3CC[C@@H]3OC)cnn12` (stereo partly shown) [Compound I-618] displayed an IC50 of under 0.1 µM.
Regarding `CNc1cc(-c2cn([C@H]3CCN(C)C3)c3ncccc23)nc2c(C(=O)N[C@H]3CC[C@@H]3OC)cnn12` [Compound I-619], the IC50 is under 0.1 µM.
The value for `CNc1cc(-c2cn([C@@H]3COC[C@@H]3F)c3ncccc23)nc2c(C(=O)NC3CC[C@@H]3OC)cnn12` (stereo partly shown) [Compound I-621] was under 0.1 µM; that for `CNc1cc(-c2cn([C@@H]3COC[C@@H]3F)c3ncccc23)nc2c(C(=O)N[C@H]3CC[C@@H]3OC)cnn12` [Compound I-622] was under 0.1 µM; that for `CNc1cc(-c2cn([C@H]3COC[C@H]3F)c3ncccc23)nc2c(C(=O)N[C@H]3CC[C@@H]3OC)cnn12` [Compound I-625] was under 0.1 µM.
For the molecule `CNc1cc(-c2cn([C@@H]3COC[C@H]3O)c3ncccc23)nc2c(C(=O)N[C@@H]3CC[C@H]3OC)cnn12` [Compound I-629], the IC50 is under 0.1 µM.
The value for `CNc1cc(-c2cn([C@H]3COC[C@@H]3O)c3ncccc23)nc2c(C(=O)N[C@H]3CC[C@@H]3OC)cnn12` [Compound I-631] was under 0.1 µM; that for `CNc1cc(-c2cn([C@H]3COC[C@@H]3OC)c3ncccc23)nc2c(C(=O)NC3CC[C@@H]3OC)cnn12` (stereo partly shown) [Compound I-633] was under 0.1 µM.
In turn, `CNc1cc(-c2cn([C@H]3COC[C@@H]3OC)c3ncccc23)nc2c(C(=O)N[C@H]3CC[C@@H]3OC)cnn12` [Compound I-634] returned an IC50 of under 0.1 µM.
On to `CNc1cc(-c2cn([C@@H]3COC[C@H]3OC)c3ncccc23)nc2c(C(=O)NC3CC[C@@H]3OC)cnn12` (stereo partly shown) [Compound I-636], for which the IC50 was under 0.1 µM.
In turn, `CNc1cc(-c2cn([C@@H]3COC[C@H]3OC)c3ncccc23)nc2c(C(=O)N[C@H]3CC[C@@H]3OC)cnn12` [Compound I-637] gave an IC50 of under 0.1 µM.
Turning to `CNc1cc(-c2cn([C@H]3CN(C)C[C@@H]3F)c3ncccc23)nc2c(C(=O)N[C@H]3CC[C@@H]3OC)cnn12` [Compound I-640], the half-inhibitory concentration (IC50) was under 0.1 µM.
Then `CNc1cc(-c2cn([C@@H]3CN(C)C[C@H]3F)c3ncccc23)nc2c(C(=O)NC3CC[C@@H]3OC)cnn12` (stereo partly shown) [Compound I-642], with under 0.1 µM; and `CNc1cc(-c2cn([C@@H]3CN(C)C[C@H]3F)c3ncccc23)nc2c(C(=O)N[C@H]3CC[C@@H]3OC)cnn12` [Compound I-643], with under 0.1 µM; and `CNc1cc(-c2cn([C@@H]3CN(C)C[C@H]3OC)c3ncccc23)nc2c(C(=O)NC3CC[C@@H]3OC)cnn12` (stereo partly shown) [Compound I-645], with under 0.1 µM.
As for `CNc1cc(-c2cn([C@@H]3CN(C)C[C@H]3OC)c3ncccc23)nc2c(C(=O)N[C@H]3CC[C@@H]3OC)cnn12` [Compound I-646], the IC50 is under 0.1 µM.
For the molecule `CNc1cc(-c2cn([C@H]3CN(C)C[C@@H]3OC)c3ncccc23)nc2c(C(=O)N[C@H]3CC[C@@H]3OC)cnn12` [Compound I-649], the half-inhibitory concentration (IC50) is under 0.1 µM.
Then `CNc1cc(-c2cn([C@H]3CCOC[C@@H]3F)c3ncccc23)nc2c(C(=O)NC3CC[C@@H]3OC)cnn12` (stereo partly shown) [Compound I-651], with under 0.1 µM; and `CNc1cc(-c2cn([C@@H]3CCOC[C@H]3F)c3ncccc23)nc2c(C(=O)NC3CC[C@@H]3OC)cnn12` (stereo partly shown) [Compound I-652], with under 0.1 µM; and `CNc1cc(-c2cn([C@H]3CCOC[C@@H]3OC)c3ncccc23)nc2c(C(=O)N[C@H]3CC[C@@H]3OC)cnn12` [Compound I-663], with under 0.1 µM.
On to `CNc1cc(-c2cn([C@H]3CCOC[C@H]3OC)c3ncccc23)nc2c(C(=O)N[C@H]3CC[C@@H]3OC)cnn12` [Compound I-666], for which the IC50 is under 0.1 µM.
Molecule `CNc1cc(-c2cn([C@@H]3CCOC[C@@H]3OC)c3ncccc23)nc2c(C(=O)NC3CC[C@@H]3OC)cnn12` (stereo partly shown) [Compound I-668] came in with an IC50 of under 0.1 µM.
The molecule `CNc1cc(-c2cn([C@@H]3CCOC[C@@H]3OC)c3ncccc23)nc2c(C(=O)N[C@H]3CC[C@@H]3OC)cnn12` [Compound I-669] yielded an IC50 of under 0.1 µM.
For `CNc1cc(-c2cn([C@H]3CCC4(C3)OCCO4)c3ncccc23)nc2c(C(=O)NC3CC[C@@H]3OC)cnn12` (stereo partly shown) [Compound I-671], the IC50 was under 0.1 µM.
For the molecule `CNc1cc(-c2cn([C@@H]3CCC4(C3)OCCO4)c3ncccc23)nc2c(C(=O)NC3CC[C@@H]3OC)cnn12` (stereo partly shown) [Compound I-672], the IC50 was under 0.1 µM.
The molecule `CNc1cc(-c2cn(C3COC3)c3ncccc23)nc2c(C(=O)NC3CCC3(F)F)cnn12` (stereo not shown) [Compound I-673] yielded an IC50 of under 0.1 µM.
In turn, `CNc1cc(-c2cn(C3COC3)c3ncccc23)nc2c(C(=O)N[C@@H]3CCC3(F)F)cnn12` [Compound I-675] displayed an IC50 of under 0.1 µM.
The value for `CNc1cc(-c2cn(C3CN(C)C3)c3ncccc23)nc2c(C(=O)NC3CCC3(F)F)cnn12` (stereo not shown) [Compound I-676] was under 0.1 µM; that for `CNc1cc(-c2cn([C@H]3C[C@@H](O)C3)c3ncccc23)nc2c(C(=O)NC3CCC3(F)F)cnn12` (stereo partly shown) [Compound I-677] was under 0.1 µM; that for `CNc1cc(-c2cn(C3CCCC3)c3ncccc23)nc2c(C(=O)NC3CCC3(F)F)cnn12` (stereo not shown) [Compound I-680] was under 0.1 µM.
With `CNc1cc(-c2cn(C3CCCC3)c3ncccc23)nc2c(C(=O)N[C@@H]3CCC3(F)F)cnn12` [Compound I-681], the IC50 is under 0.1 µM.
Molecule `CNc1cc(-c2cn(C3CCCC3)c3ncccc23)nc2c(C(=O)N[C@H]3CCC3(F)F)cnn12` [Compound I-685] came in with an IC50 of under 0.1 µM.
As for `CNc1cc(-c2cn([C@@H]3CCN(C)C3)c3ncccc23)nc2c(C(=O)NC3CCC3(F)F)cnn12` (stereo partly shown) [Compound I-686], the IC50 was under 0.1 µM.
`CNc1cc(-c2cn([C@@H]3COC[C@H]3O)c3ncccc23)nc2c(C(=O)NC3CCC3(F)F)cnn12` (stereo partly shown) [Compound I-692] showed an IC50 of under 0.1 µM.
The molecule `CNc1cc(-c2cn([C@@H]3COC[C@H]3O)c3ncccc23)nc2c(C(=O)N[C@H]3CCC3(F)F)cnn12` [Compound I-693] registered an IC50 of under 0.1 µM.
`CNc1cc(-c2cn([C@H]3COC[C@@H]3O)c3ncccc23)nc2c(C(=O)NC3CCC3(F)F)cnn12` (stereo partly shown) [Compound I-695] had a half-maximal inhibitory concentration (IC50) of under 0.1 µM.
`CNc1cc(-c2cn(C3CCOCC3)c3ncccc23)nc2c(C(=O)N[C@H]3CCC3(F)F)cnn12` [Compound I-699] had a concentration for half-maximal inhibition (IC50) of under 0.1 µM.
The value for `CNc1cc(-c2cn([C@@H]3CCOC[C@@H]3OC)c3ncccc23)nc2c(C(=O)NC3CCC3(F)F)cnn12` (stereo partly shown) [Compound I-702] was under 0.1 µM; that for `CNc1cc(-c2cn([C@@H]3CCOC[C@@H]3OC)c3ncccc23)nc2c(C(=O)N[C@H]3CCC3(F)F)cnn12` [Compound I-703] was under 0.1 µM; that for `CNc1cc(-c2cn([C@H]3CC3(F)F)c3ncccc23)nc2c(C(=O)N[C@@H]3COC[C@@H]3O)cnn12` [Compound I-711] was under 0.1 µM.
